Measured values: PubChem BioAssay (NCI)
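Compound exposure: 48 hours, 5 concentrations, 96-well plates. GI50 is the concentration that inhibits growth by half. Definition used: TGI = concentration required for complete inhibition of growth.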

Key:
Assay in all cases: DTP human tumour cell line panel, 48 h
[1] = system: OVCAR-5 ovarian
[2] = system: NCI-H23 lung
[3] = system: OVCAR-4 ovarian
[4] = system: SF-295 CNS
[5] = system: HS 578T breast
[6] = system: UO-31 renal
[7] = system: DU-145 prostate
[8] = system: UACC-257 melanoma
[9] = system: EKVX NSCLC
[10] = system: T-47D breast
[11] = system: OVCAR-3 ovarian
[12] = system: A498 renal
[13] = system: ACHN renal
[14] = system: HCC-2998 colon
[15] = system: K-562 leukemia
[16] = system: SN12C renal
[17] = system: SF-268 CNS
[18] = system: NCI-H460 lung
[19] = system: M14 melanoma
[20] = system: SR leukemia
[21] = system: HOP-92 NSCLC
[22] = system: MDA-MB-231 breast
[23] = system: CAKI-1 renal
[24] = system: NCI-H522 lung
[25] = system: SK-OV-3 ovarian
[26] = system: UACC-62 melanoma
[27] = system: NCI-H226 lung
[28] = system: SNB-19 CNS
[29] = system: SK-MEL-2 melanoma
[30] = system: TK-10 renal
[31] = system: BT-549 breast
[32] = system: U251 CNS
[33] = system: PC-3 prostate
[34] = system: MCF7 breast
[35] = system: RPMI-8226 leukemia
[36] = system: MDA-MB-435
[37] = system: SF-539 CNS
[38] = system: HCT-116 colon
[39] = system: 786-0 renal
[40] = system: CCRF-CEM leukemia
[41] = system: SK-MEL-28 melanoma
[42] = system: SNB-75 CNS
[43] = system: HOP-62 NSCLC
[44] = system: MALME-3M melanoma
[45] = system: HL-60(TB) leukemia
[46] = system: IGROV1 ovarian
[47] = system: COLO 205 colon
[48] = system: OVCAR-8 ovarian
[49] = system: SW-620 colon
[50] = system: HCT-15 colon
[51] = system: RXF 393 renal
[52] = system: SK-MEL-5 melanoma
[53] = system: A549 NSCLC
[54] = system: NCI/ADR-RES ovarian
[55] = system: HT29 colon
[56] = system: MOLT-4 leukemia
[57] = system: KM12 colon

With `CN1CCc2c(sc3ncnc(N/N=C/c4ccc(Cl)c(Cl)c4)c23)C1` the GI50 [1] was 15.3 µM, the TGI [1] was 30.9 µM and the GI50 [2] was 13.5 µM. It also gave a TGI [2] of 31.2 µM, a GI50 [3] of 15.5 µM and a TGI [3] of 30.9 µM. The GI50 [4] was 13 µM, the TGI [4] was 27.9 µM and the GI50 [5] was 22.1 µM. It also gave a TGI [5] of 65.8 µM, a GI50 [6] of 10.1 µM and a TGI [6] of 22.7 µM. It also gave a GI50 [7] of 14.5 µM, a TGI [7] of 28.5 µM and a GI50 [8] of 14.8 µM. It also gave a TGI [8] of 30.2 µM, a GI50 [9] of 19.1 µM and a TGI [9] of 39 µM. It also gave a GI50 [10] of 19.9 µM, a TGI [10] of 49.9 µM and a GI50 [11] of 15.7 µM. The TGI [11] was 30.1 µM, the GI50 [12] was 19.9 µM and the TGI [12] was 35.6 µM. It also gave a GI50 [13] of 15.1 µM, a TGI [13] of 31.5 µM and a GI50 [14] of 9.8 µM. For the same molecule, the TGI [14] was 25.7 µM, the GI50 [15] was 12.5 µM and the TGI [15] was 57 µM. For the same molecule, the GI50 [16] was 11.5 µM, the TGI [16] was 26.3 µM and the GI50 [17] was 16.5 µM. The TGI [17] was 39.4 µM, the GI50 [18] was 16.4 µM and the TGI [18] was 34.7 µM. The GI50 [19] was 17.6 µM, the TGI [19] was 43.8 µM and the GI50 [20] was 2.52 µM. For the same molecule, the TGI [20] was 8.04 µM, the GI50 [21] was 7.63 µM and the TGI [21] was 34.3 µM. For the same molecule, the GI50 [22] was 12.4 µM, the TGI [22] was 26.8 µM and the GI50 [23] was 15.2 µM. The TGI [23] was 29.1 µM, the GI50 [24] was 11.7 µM and the TGI [24] was 28.3 µM. It also gave a GI50 [25] of 17.1 µM, a TGI [25] of 34.8 µM and a GI50 [26] of 14.9 µM. The TGI [26] was 29.6 µM, the GI50 [27] was 77.9 µM and the TGI [27] was > 100 µM. It also gave a GI50 [28] of 15.4 µM, a TGI [28] of 35.6 µM and a GI50 [29] of 38.4 µM. The TGI [29] was > 100 µM, the GI50 [30] was 21.2 µM and the TGI [30] was 36.1 µM. The GI50 [31] was 14 µM, the TGI [31] was 33 µM and the GI50 [32] was 17.1 µM. The TGI [32] was 35.8 µM, the GI50 [33] was 18.1 µM and the TGI [33] was 43.9 µM. The GI50 [34] was 3.94 µM, the TGI [34] was 18.6 µM and the GI50 [35] was 17 µM. It also gave a TGI [35] of 66.4 µM, a GI50 [36] of 18.2 µM and a TGI [36] of 34.4 µM. The GI50 [37] was 13.8 µM, the TGI [37] was 29.8 µM and the GI50 [38] was 13.7 µM. For the same molecule, the TGI [38] was 44.4 µM, the GI50 [39] was 12.4 µM and the TGI [39] was 32.1 µM. For the same molecule, the GI50 [40] was 14 µM, the TGI [40] was > 100 µM and the GI50 [41] was 13.7 µM. It also gave a TGI [41] of 29.8 µM, a GI50 [42] of 14.6 µM and a TGI [42] of 28.6 µM. It also gave a GI50 [43] of 10.2 µM, a TGI [43] of 41.4 µM and a GI50 [44] of 14.1 µM. The TGI [44] was 28.5 µM, the GI50 [45] was 2.04 µM and the TGI [45] was 4.83 µM. It also gave a GI50 [46] of 15.6 µM, a TGI [46] of 31.8 µM and a GI50 [47] of 10.6 µM. It also gave a TGI [47] of 27.5 µM, a GI50 [48] of 14.1 µM and a TGI [48] of 39.7 µM. For the same molecule, the GI50 [49] was 12.1 µM, the TGI [49] was 29.8 µM and the GI50 [50] was 6.61 µM. It also gave a TGI [50] of 22.2 µM, a GI50 [51] of 12.8 µM and a TGI [51] of 28.1 µM. The GI50 [52] was 13.7 µM, the TGI [52] was 28.5 µM and the GI50 [53] was 11 µM. It also gave a TGI [53] of 32.1 µM, a GI50 [54] of 14.3 µM and a TGI [54] of 34.1 µM. For the same molecule, the GI50 [55] was 13.6 µM, the TGI [55] was 29.3 µM and the GI50 [56] was 11.9 µM. The TGI [56] was 43.6 µM, the GI50 [57] was 17.9 µM and the TGI [57] was 34 µM.
